# According to patent US10450321B2, “[1,2,3]triazolo[4,5-D]pyrimidine derivatives” (Hoffmann-La Roche Inc., priority 2016, dated 2019):
# pKi: −log10 of the molar value. Read-outs that look alike come from different tables or passages of the source.
# Key:
# human CB2 receptor = human CB2 receptor (Homo sapiens (Human), UniProt P34972); assay: Radioligand binding assay, [3H]-CP-55,940, HEK cell membranes expressing human CNR2
# Procedure: (§1) Radioligand Binding Assay
# (§2) The affinity of the compounds of the invention for cannabinoid receptors was determined using recommended amounts of membrane preparations (PerkinElmer) of human embryonic kidney (HEK) cells expressing the human CNR1 or CNR2 receptors in conjunction with 1.5 or 2.6 nM [3H]-CP-55,940 (Perkin Elmer) as radioligand, respectively. Binding was performed in binding buffer (50 mM Tris, 5 mM MgCl2, 2.5 mM EDTA, and 0.5% (wt/vol) fatty acid free BSA, pH 7.4 for CB1 receptor and 50 mM Tris, 5 mM MgCl2, 2.5 mM EGTA, and 0.1% (wt/vol) fatty acid free BSA, pH 7.4 for CB2 receptor) in a total volume of 0.2 mL for 1 h at 30° C. shaking. The reaction was terminated by rapid filtration through microfiltration plates coated with 0.5% polyethylenimine (UniFilter GF/B filter plate; Packard). Bound radioactivity was analyzed for Ki using nonlinear regression analysis (Activity Base, ID Business Solution, Limited), with the Kd values for [^3H]CP55,940 determined from saturation experiments.
# human CB1 receptor = human CB1 receptor (Homo sapiens (Human), UniProt P21554); assay: Radioligand binding assay, [3H]-CP-55,940, HEK cell membranes expressing human CNR1
# Procedure: as §1, §2
# [1] = membranes of HEK cells expressing human CNR2, 2.6 nM [3H]-CP-55,940, 1 h at 30° C., read-out: human CB2 Ki
# [2] = membranes of HEK cells expressing human CNR1, 1.5 nM [3H]-CP-55,940, 1 h at 30° C., read-out: human CB1 Ki
# Chain of human CB2 receptor (P34972 whole entry): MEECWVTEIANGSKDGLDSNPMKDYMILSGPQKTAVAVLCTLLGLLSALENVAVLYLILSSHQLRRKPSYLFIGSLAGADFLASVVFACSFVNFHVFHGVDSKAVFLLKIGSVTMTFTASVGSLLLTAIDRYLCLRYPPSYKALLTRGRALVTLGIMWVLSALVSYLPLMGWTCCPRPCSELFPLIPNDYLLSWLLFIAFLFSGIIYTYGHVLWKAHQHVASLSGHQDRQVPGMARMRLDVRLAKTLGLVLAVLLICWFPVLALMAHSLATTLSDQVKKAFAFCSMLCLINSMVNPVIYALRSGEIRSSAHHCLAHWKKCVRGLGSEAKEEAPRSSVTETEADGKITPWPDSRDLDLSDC
# Chain of human CB1 receptor (P21554 whole entry): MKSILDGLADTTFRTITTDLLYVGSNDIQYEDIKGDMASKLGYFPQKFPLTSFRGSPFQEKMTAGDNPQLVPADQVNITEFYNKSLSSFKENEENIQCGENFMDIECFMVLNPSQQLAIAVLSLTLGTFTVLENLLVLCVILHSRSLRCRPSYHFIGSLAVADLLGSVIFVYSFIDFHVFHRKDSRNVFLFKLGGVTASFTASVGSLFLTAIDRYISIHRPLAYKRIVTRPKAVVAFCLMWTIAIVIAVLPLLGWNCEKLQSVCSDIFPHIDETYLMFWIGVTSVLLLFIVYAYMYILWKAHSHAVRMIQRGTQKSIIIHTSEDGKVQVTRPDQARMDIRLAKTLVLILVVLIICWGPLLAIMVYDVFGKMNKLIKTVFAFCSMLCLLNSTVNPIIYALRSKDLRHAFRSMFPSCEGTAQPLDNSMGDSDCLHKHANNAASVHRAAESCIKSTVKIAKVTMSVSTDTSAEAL
SMILES,pKi (human CB2 receptor),pKi (human CB1 receptor),pKi (human CB2 receptor; [1]),pKi (human CB1 receptor; [2])
"CC(C)(C)c1nc(N2CC[C@H](O)C2)c2nn(Cc3ccccc3S(=O)(=O)F)nc2n1 [Example 1, 2-({5-tert-Butyl-7-[(3S)-3-hydroxypyrrolidin-1-yl]-2H-[1,2,3]triazolo[4,5-d]pyrimidin-2-yl}methyl)benzene-1-sulfonyl fluoride]",5.93,< 5.00,–,–
"CC(C)(C)c1nc(N2CCC(F)(F)C2)c2nn(Cc3ccccc3CS(=O)(=O)F)nc2n1 [Example 2, (2-{[5-tert-Butyl-7-(3,3-difluoropyrrolidin-1-yl)-2H-[1,2,3]triazolo[4,5-d]pyrimidin-2-yl]methyl}phenyl)methanesulfonyl fluoride]",6.20,< 5.00,–,–
"CC(C)(C)c1nc(N2CC[C@H](O)C2)c2nn(Cc3ccccc3CN=C=S)nc2n1 [Example 3, (3S)-1-(5-tert-Butyl-2-{[2-(isothiocyanatomethyl)phenyl]methyl}-2H-[1,2,3]triazolo[4,5-d]pyrimidin-7-yl)pyrrolidin-3-ol]",–,–,6.28,< 5.00
"CC(C)(C)c1nc(N2CCC(F)(F)C2)c2nn(Cc3ccccc3N=C=S)nc2n1 [Example 4, 5-tert-Butyl-7-(3,3-difluoropyrrolidin-1-yl)-2-[(2-isothiocyanatophenyl)methyl]-2H-[1,2,3]triazolo[4,5-d]pyrimidine]",–,–,6.34,< 5.00
"CC(C)(C)c1nc(N2CCC(F)(F)C2)c2nn(Cc3ccccc3S(=O)(=O)F)nc2n1 [Example 5, 2-{[5-tert-Butyl-7-(3,3-difluoropyrrolidin-1-yl)-2H-[1,2,3]triazolo[4,5-d]pyrimidin-2-yl]methyl}benzene-1-sulfonyl fluoride]",6.44,< 5.00,–,–
"CC(C)(C)c1nc(N2CCC(F)(F)C2)c2nn(Cc3ccccc3CN=C=S)nc2n1 [Example 6, 5-tert-Butyl-7-(3,3-difluoropyrrolidin-1-yl)-2-{[2-(isothiocyanatomethyl)phenyl]methyl}-2H-[1,2,3]triazolo[4,5-d]pyrimidine]",–,–,6.68,5.31
"C#Cc1cccc(S(=O)(=O)F)c1Cn1nc2nc(C(C)(C)C)nc(N3CCC(F)(F)C3)c2n1 [Example 7, 2-[[5-tert-Butyl-7-(3,3-difluoropyrrolidin-1-yl)triazolo[4,5-d]pyrimidin-2-yl]methyl]-3-ethynylbenzenesulfonyl fluoride]",6.38,< 5.00,–,–
